Assay results from US10517862B2, “Fused heterocyclic compound derivative and application thereof” (NHWA PHARMA. CORPORATION, priority 2015, dated 2019).

Key:
in vivo = details: both sexes, mouse, in vivo, po; single intragastric administration in mice; read-out: LD50 (po, mg/kg)
mice of Kunming breed = assay: Apomorphine induced clambering assay of mice; format: in vivo; details: Mus musculus; mice, po; apomorphine 1 mg/kg sc 1 hour after administration; read-out: Apomorphine induced clambering (ED50, po, mg/kg)
Method: Healthy mice of Kunming breed (KM) (male, with body weight of 18-22 g) were provided by Qinglongshan Animal Cultivation Center, Nanjing.
Apomorphine provided by Sigma Company was dissolved in 0.9% NaCl (containing 0.1% vitamin C) before use, and was freshly formulated before use.
Vitamin C, F20061113, was provided by Sinopharm Chemical Reagent Co. Ltd.
Sodium chloride injection, H32026305, was provided by Xuzhou No. 5 Pharmaceutical Factory Co. Ltd.
Instruments: self-made clambering cage, chronograph.
Procedures: apomorphine induced clambering assay of mice
After 5 min of adaptation, the behavior of the mice at 10-11, 20-21, and 30-31 min after the injection of apomorphine were observed and scored. Scoring criteria: the behavior of 4 paws on the floor was scored as 0; the behavior of 2 forepaws on the cage was scored as 1; and the behavior of 4 paws on the cage was scored as 2.

D3 receptor = biological target: T1, D3 receptor (Homo sapiens, UniProt P35462); assay: D3 receptor assay ([3H]-Spiperone, HEK-293 cells); format: binding; details: for affinity with D3 (in words): summary of in vitro assay; for inhibition at 10 µM: test compound final concentration 10 μmol/L, [3H]-Spiperone, HEK-293 cells, read-out: D3 Inhibition rate (%)
T1 construct: expressed in transfected cells; host or cells: HEK-293
T1 sequence (P35462 whole entry): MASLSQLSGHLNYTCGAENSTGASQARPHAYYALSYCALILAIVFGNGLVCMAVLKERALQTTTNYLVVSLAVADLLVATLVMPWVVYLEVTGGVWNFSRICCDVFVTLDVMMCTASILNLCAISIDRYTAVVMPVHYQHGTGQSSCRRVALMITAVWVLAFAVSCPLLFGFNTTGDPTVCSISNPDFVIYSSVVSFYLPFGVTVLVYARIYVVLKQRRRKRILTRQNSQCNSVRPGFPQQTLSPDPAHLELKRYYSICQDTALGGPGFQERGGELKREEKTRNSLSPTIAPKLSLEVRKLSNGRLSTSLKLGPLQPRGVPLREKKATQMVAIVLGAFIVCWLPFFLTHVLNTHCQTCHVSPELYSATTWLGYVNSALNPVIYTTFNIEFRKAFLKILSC
Method: Then the cells were centrifuged at 1000 rpm for 5 min, the supernatant was discarded, and the cell pellets was collected and stored in a −20° C. fridge for reservation. It was re-suspended with Tris-Cl (pH 7.4) when the assay was performed.
Tris was divided into aliquots by Genetimes Technology Inc.
Competitive binding test for receptors: 20 μl of each of the test compounds and 20 μl of the radioactive ligand together with 160 μl of the receptor proteins were added into the reaction tubes, and the final concentrations of the test compound and the positive drug were all 10 μmol/L. After 50 min of incubation in 30° C. water bath, the tubes were immediately moved to ice bath to terminate the reactions. GF/C glass fiber filter papers were used for rapid sucking filtration on a Millipore cell sample collector, 3 ml of elution buffer (50 mM Tris-HCl, PH 7.4) was applied for 3 times, and microwave was applied for 4-5 min for drying. The filter paper was moved into 0.5 ml centrifuge tube, and 500 μl of liposoluble scintillation cocktail was added. The tubes were allowed to stand still for over 30 min in dark, and the intensities of radioactivity were measured by a counter.

Compound | LD50 at 7 days (in vivo) | ED50 (mice of Kunming breed) | affinity with D3 (in words) (D3 receptor) | inhibition at 10 µM (D3 receptor)
O=C(CCCN1CCC(c2noc3cc(F)ccc23)CC1)c1cc2c3c(c1)CCC(=O)N3CCC2 [Compound 5] | > 2000 mg/kg | 1.31 mg/kg | high affinities | 98%
O=C(CCN1CCC(c2noc3cc(F)ccc23)CC1)c1cc2c3c(c1)CCN3C(=O)CC2 [Compound 12] | > 2000 mg/kg | 0.076 mg/kg | high affinities | 94.9%
